Results: patent US20070286886A1, “Materials And Methods For Inducing Apoptosis In Adipocytes” (University of Tennessee Research Foundation, priority 2004, published 2007)
Entries after “also recorded” stand apart in the source; their conditions may differ.

How the values were obtained:
Bcl-2/Bax = Bcl-2/Bax expression ratio by real-time PCR in 3T3-L1 and UCP2-transfected 3T3-L1 adipocytes; assay type: cell-based; conditions: 24 h, P<0.01
Experimental: (§1) 3T3-L1 preadipocytes were incubated at a density of 8000 cells/cm2 (10 cm2 dish) and grown in Dulbecco's modified Eagle's medium (DMEM) containing 10% FBS and antibiotics (adipocyte medium) at 37° C. in 5% CO2 in air. Confluent preadipocytes were induced to differentiate with a standard differentiation medium consisting of DMEM-F10 (1:1, vol/vol) medium supplemented with 1% FBS, 1 μM dexamethasone, IBMX (0.5 mM), and antibiotics (1% penicillin-streptomycin). Preadipocytes were maintained in this differentiation medium for 3 days and subsequently cultured in adipocyte medium. Cultures were re-fed every 2-3 days to allow 90% cells to reach full differentiation before they were chemically treated. Chemicals were freshly diluted in adipocyte medium before treatment. Cells were washed with fresh adipocyte medium, re-fed with medium containing the different treatments, and incubated at 37° C. in 5% CO2 in air before analysis. Cell viability was measured via trypan blue exclusion.
(§2) UCP2 full-length cDNAs were amplified by […] using mRNAs isolated from mouse white adipose tissues. The PCR primers for this amplification are shown as follows: UCP2 forward, 5′-[…]-3′, reverse, 5′-[…]-3′. The PCR products were then subcloned into pcDNA4/His expression vectors. The linearized constructs were transfected into 3T3-L1 preadipocytes using lipofectamine plus standard protocol (Invitrogen, Carlsbad, Calif.). After 48 h of transfection, cells were split and cultured in selective medium containing 400 ug/ml zeocin for the selection of resistant colonies. […]
(§3) Adipocyte caspase-1, caspase-3, Bcl-2, and Bax mRNA were quantitatively measured using a Smart Cycler Real Time PCR System (Cepheid, Sunnyvale, Calif.) with a TaqMan 1000 Core Reagent Kit (Applied Biosystems, Branchburg, N.J.). […] Reactions of quantitative RT-PCR for standards and unknown samples were Cepheid, Sunnyvale, Calif.) and TaqMan Real Time PCR Core Kit. The mRNA quantitation for each sample was further normalized using the corresponding 18 s quantitation, with a forward primer, 5′-[…]-3′, and a reverse primer, 5′-[…]-3′.

[1] = test system: 3T3-L1 and UCP2-transfected 3T3-L1 adipocytes; test: Cytosolic/intracellular calcium (fura-2 dual-wavelength fluorescence imaging) in adipocytes; assay type: cell-based
3T3-L1 and L1-UCP2 cells = test: Adipocyte apoptosis in 3T3-L1 and L1-UCP2 cells; assay type: cell-based
Experimental: as §1, with “Cells were washed with fresh adipocyte medium, re-fed with medium containing the different treatments, and incubated at 37° C. in 5% CO2 in air before analysis.” left out, “exclusion. […]” for “exclusion.”
as §3

caspase-1 = test: Caspase-1 mRNA expression by real-time PCR in 3T3-L1 and UCP2-transfected 3T3-L1 adipocytes; assay type: cell-based; conditions: 24 h, control and UCP2-transfected 3T3-L1 cells
Experimental: as §1, §2, §3

[2] = test system: 3T3-L1 and UCP2-transfected 3T3-L1 cells; test: ATP production (microplate luminometer) in adipocytes; assay type: cell-based; conditions: 4 h
Experimental: Adipocytes were incubated with adipocyte medium for 4 h with or without 1α,25-(OH)2-D3. ATP levels were measured using ENLITEN Total ATP Rapid Biocontamination Detection Kit (Promega, Madison, […].) according to the manufacturer's instructions. Cellular ATP was extracted as described previously and measured using a microplate luminometer (Labsystem, Helsinki, Finland). The integration time of the luminometer was set at 1 s with normal gain. Measurement of cytosolic Ca^2+ ([Ca^2+]c) and mitochondrial calcium([Ca^2+]m)

UCP2 = UCP2 expression in 3T3-L1 cells (western blot, UCP2/actin); assay type: cell-based, mouse; conditions: 3T3-L1 cells, BK8644
Experimental: Duplex siRNA corresponding to UCP2 gene was designed and chemically synthesized by Invitrogen. The following gene-specific sequences were used successfully: Si-UCP2 sense 5′-GCCUCUACGACUCUGUCAA-3′ and antisense […]. Transfection of siRNA was performed with Oligofectamine™ reagent (Invitrogen Life Technologies, CA) in 6-well plates. Briefly, Oligofectamine diluted in DMEM was applied to the duplex siRNA mixture, and the formulation was continued for 20 min to allow the Oligofectamine-oligonucleotide complex to form. Per well, 800 μl of plating medium and 10 ul of 20 μM duplex siRNA duplex siRNA formulated with 4 μl of Oligofectamine were applied in a final volume of 1 ml. Cells were then incubated at […] in a CO2 incubator for 4 hrs. […]
Adipocytes were harvested and sonicated in a homogenization buffer containing 50 mM Tris-HCl (PH 7.4), 250 mM sucrose, 1 mM EDTA, 1 mM dithiothreitol, 1% (v/v) Triton X, 10% protease cocktail (Sigma). […] Homogenate intrafranatant protein from equal numbers of cells (determined via protein quantitation using Bradford method as described previously) was boiled in Laemmli sample buffer and subject to 10% SDS-polyacrylamide gel electrophoresis (PAGE). […] Visualization was detected with chemiluminescence reagent, using the Western Blotting Luminal Reagent (Santa Cruz Biotechnology, CA).

Row | Structure (SMILES) | Bcl-2/Bax expression ratio (Bcl-2/Bax; high dose 100 nM, control and UCP2-transfected 3T3-L1 cells) | Bcl-2/Bax expression ratio (Bcl-2/Bax; lower levels (0.1-10 nM)) | cytosolic calcium levels ([1]; 1 nM, 5 nM, 10 nM, 100 nM, control and UCP2-transfected cells) | increase in calcium influx, high dose relative to the lower doses ([1]; high dose (100 nM) vs lower doses) | apoptosis (3T3-L1 and L1-UCP2 cells; high dose (100 nM), 3T3-L1 and L1-UCP2 cells, P<0.05) | UCP2 overexpression-induced apoptosis (3T3-L1 and L1-UCP2 cells; physiological doses (0.1-10 nM), L1-UCP2 cells, P<0.01) | caspase-1 expression (caspase-1; high dose 100 nM, P<0.01) | caspase-1 expression (caspase-1; physiological low doses 0.1 nM, 1 nM, 5 nM, 10 nM, P<0.05) | ATP production ([2]; high dose (100 nM), P<0.05) | ATP production ([2]; low dose, P<0.01) | adipocyte Ca2+ influx / [Ca2+]i ([1]; 1 nM-100 nM, 3T3-L1 cells) | increases in [Ca2+]i ([1]; 3T3-L1 cells) | effect on UCP2 expression (UCP2)
1 | C=C1/C(=C\C=C2/CCC[C@]3(C)[C@@H]([C@H](C)CCCC(C)(C)O)CC[C@@H]23)C[C@@H](O)C[C@@H]1O [1α,25-(OH)2-D3, 1α,25-dihydroxyvitamin D3] | significant decrease | dose-dependent increase | dose-dependent increase; also recorded: dose-dependently | 10 fold | stimulated | protected | stimulated | inhibited | inhibited | markedly increased |  |  | 
2 | COC(=O)C1=C(C)NC(C)=C([N+](=O)[O-])C1c1ccccc1C(F)(F)F (stereo not shown) [Bay K 8644] |  |  |  |  |  |  |  |  |  |  | dose-dependent | 3-4 fold | no effect
